Patent US10745361B2, “Piperazine derivatives having multimodal activity against pain” (ESTEVE PHARMACEUTICALS, S.A., priority 2013, dated 2020)

Each compound was assayed on human σ1 receptor and human μ-opioid receptor (assay: Human σ1 receptor radioligand assay and human μ-opioid receptor radioligand assay (μ and σ1 dual binding)). Conditions: one class for both Ki: σ1 ([3H](+)-pentazocine, transfected HEK-293 membranes) and μ-opioid ([3H]-DAMGO, transfected CHO-K1 membranes).
Design: key to μ and σ1 dual binding: +: Both Ki-μ and Ki-σ1>=500 nM; ++: One K, <500 nM while the other K, is >=500 nM; +++: Both Ki-μ and Ki-σ1<500 nM; ++++: Both Ki-μ and Ki-σ1<100 nM
Procedure: Human σ1 Receptor Radioligand Assay
To investigate binding properties of σ1 receptor ligands to human σ1 receptor, transfected HEK-293 membranes and [^3H](+)-pentazocine (Perkin Elmer, NET-1056), as the radioligand, were used. The assay was carried out with 7 μg of membrane suspension, 5 nM of [^3H](+)-pentazocine in either absence or presence of either buffer or 10 μM Haloperidol for total and non-specific binding, respectively. Binding buffer contained Tris-HCl 50 mM at pH 8. Plates were incubated at 37° C. for 120 minutes. After the incubation period, the reaction mix was then transferred to MultiScreen HTS, FC plates (Millipore), filtered and plates were washed 3 times with ice-cold 10 mM Tris-HCL (pH7.4). Filters were dried and counted at approximately 40% efficiency in a MicroBeta scintillation counter (Perkin-Elmer) using EcoScint liquid scintillation cocktail
Human μ-Opioid Receptor Radioligand Assay
To investigate binding properties of p-opioid receptor ligands to human p-opioid receptor, transfected CHO-K1 cell membranes and [^3H]-DAMGO (Perkin Elmer, ES-542-C), as the radioligand, were used. The assay was carried out with 20 μg of membrane suspension, 1 nM of [^3H]-DAMGO in either absence or presence of either buffer or 10 μM Naloxone for total and non-specific binding, respectively. Binding buffer contained Tris-HCl 50 mM, MgCl2 5 mM at pH 7.4. Plates were incubated at 27° C. for 60 minutes. After the incubation period, the reaction mix was then transferred to MultiScreen HTS, FC plates (Millipore), filtered and plates were washed 3 times with ice-cold 10 mM Tris-HCL (pH 7.4). Filters were dried and counted at approximately 40% efficiency in a MicroBeta scintillation counter (Perkin-Elmer) using
EcoScint liquid scintillation cocktail.
The following scale as been adopted for representing the binding to the σ1 receptor and the μ-opiod receptor expressed as Ki: • + Both Ki-μ and Ki-σ1>=500 nM • ++ One K, <500 nM while the other K, is >=500 nM • +++ Both Ki-μ and Ki-σ1<500 nM • ++++ Both Ki-μ and Ki-σ1<100 nM

**Q.** For `CC(C)S(=O)(=O)Nc1cccc(N2CCCN(Cc3cn(Cc4ccccn4)nn3)CC2)n1` [Example 59, N-(6-(4-((1-(pyridin-2-ylmethyl)-1H-1,2,3-triazol-4-yl)methyl)-1,4-diazepan-1-yl)pyridin-2-yl)propane-2-sulfonamide], which “μ and σ1 dual binding” value is on record?
**A.** The value was “++”.

**Q.** `CC(C)S(=O)(=O)Nc1cccc(N2CCCN(Cc3cn(-c4ccccc4F)nn3)CC2)n1` [Example 60, N-(6-(4-((1-(2-fluorophenyl)-1H-1,2,3-triazol-4-yl)methyl)-1,4-diazepan-1-yl)pyridin-2-yl)propane-2-sulfonamide] was tested. Which Ki did it give?
**A.** The Ki was < 500 nM.

**Q.** With `CC(C)S(=O)(=O)Nc1cccc(N2CC3CN(Cc4cn(-c5ccccc5F)nn4)CC3C2)n1` (stereo not drawn) [Example 61, N-(6-(5-((1-(2-fluorophenyl)-1H-1,2,3-triazol-4-yl)methyl)hexahydropyrrolo[3,4-c]pyrrol-2(1H)-yl)pyridin-2-yl)propane-2-sulfonamide] as the compound, how does the “μ and σ1 dual binding” value read?
**A.** The value was “++”.

**Q.** For `CC(C)S(=O)(=O)Nc1cccc(N2CCN(Cc3cn(-c4ccccn4)cn3)CC2)n1` [Example 62, N-(6-(4-((1-(pyridin-2-yl)-1H-imidazol-4-yl)methyl)piperazin-1-yl)pyridin-2-yl)propane-2-sulfonamide], which Ki is on record?
**A.** Its Ki is < 500 nM.

**Q.** With `Nc1cccc(N2CCN(Cc3cn(-c4ccccc4)nn3)CC2)n1` [Example 63, 6-(4-((1-phenyl-1H-1,2,3-triazol-4-yl)methyl)piperazin-1-yl)pyridin-2-amine] as the compound, how does the Ki read?
**A.** Its Ki is ≥ 500 nM.

**Q.** With `O=S(=O)(Nc1cccc(N2CCN(Cc3cn(-c4ncccc4F)nn3)CC2)n1)C1CC1` [Example 64, N-(6-(4-((1-(3-fluoropyridin-2-yl)-1H-1,2,3-triazol-4-yl)methyl)piperazin-1-yl)pyridin-2-yl)cyclopropanesulfonamide] as the compound, how does the “μ and σ1 dual binding” value read?
**A.** The value was “++”.

**Q.** For `O=S(=O)(Nc1cccc(N2CCN(Cc3cn(-c4cc(F)ccc4F)nn3)CC2)n1)C1CC1` [Example 65, N-(6-(4-((1-(2,5-difluorophenyl)-1H-1,2,3-triazol-4-yl)methyl)piperazin-1-yl)pyridin-2-yl)cyclopropanesulfonamide], which “μ and σ1 dual binding” value is on record?
**A.** Its value is “++”.

**Q.** Which “μ and σ1 dual binding” value does the source give for `Cc1ccc(F)c(-n2cc(CN3CCN(c4cccc(NS(=O)(=O)C5CC5)n4)CC3)nn2)c1` [Example 66, N-(6-(4-((1-(2-fluoro-5-methylphenyl)-1H-1,2,3-triazol-4-yl)methyl)piperazin-1-yl)pyridin-2-yl)cyclopropanesulfonamide] here?
**A.** The value was “++”.

**Q.** `O=S(=O)(Nc1cccc(N2CCN(Cc3cn(-c4ccc(C(F)(F)F)cn4)nn3)CC2)n1)C1CC1` [Example 67, N-(6-(4-((1-(5-(trifluoromethyl)pyridin-2-yl)-1H-1,2,3-triazol-4-yl)methyl)piperazin-1-yl)pyridin-2-yl)cyclopropanesulfonamide] was tested. Which “μ and σ1 dual binding” value did it give?
**A.** The value was “++”.

**Q.** With `O=S(=O)(Nc1cccc(N2CCN(Cc3cn(-c4ccc(C(F)(F)F)cc4)nn3)CC2)n1)C1CC1` [Example 68, N-(6-(4-((1-(4-(trifluoromethyl)phenyl)-1H-1,2,3-triazol-4-yl)methyl)piperazin-1-yl)pyridin-2-yl)cyclopropanesulfonamide] as the compound, how does the “μ and σ1 dual binding” value read?
**A.** Its value is “++”.

**Q.** For `O=S(=O)(Nc1cccc(N2CCN(Cc3cn(-c4ccc(C(F)(F)F)cc4F)nn3)CC2)n1)C1CC1` [Example 69, N-(6-(4-((1-(2-fluoro-4-(trifluoromethyl)phenyl)-1H-1,2,3-triazol-4-yl)methyl)piperazin-1-yl)pyridin-2-yl)cyclopropanesulfonamide], which “μ and σ1 dual binding” value is on record?
**A.** Its value is “++”.

**Q.** How did the Ki turn out when `O=S(=O)(Nc1cccc(N2CCN(Cc3cn(-c4ccccc4)cn3)CC2)n1)C1CC1` [Example 70, N-(6-(4-((1-phenyl-1H-imidazol-4-yl)methyl)piperazin-1-yl)pyridin-2-yl)cyclopropanesulfonamide] was run?
**A.** The Ki was < 500 nM.

**Q.** For `O=S(=O)(Nc1cccc(N2CCN(Cc3cn(-c4ccccc4F)cn3)CC2)n1)C1CC1` [Example 71, N-(6-(4-((1-(2-fluorophenyl)-1H-imidazol-4-yl)methyl)piperazin-1-yl)pyridin-2-yl)cyclopropanesulfonamide], which Ki is on record?
**A.** The Ki was < 500 nM.

**Q.** For `Nc1cccc(N2CCN(Cc3cn(-c4ccccc4F)nn3)CC2)n1` [Example 72, 6-(4-((1-(2-fluorophenyl)-1H-1,2,3-triazol-4-yl)methyl)piperazin-1-yl)pyridin-2-amine], which “μ and σ1 dual binding” value is on record?
**A.** The value was “++”.

**Q.** For `O=S(=O)(Nc1cccc(N2CCN(Cc3cn(-c4ccccn4)cn3)CC2)n1)C1CC1` [Example 73, N-(6-(4-((1-(pyridin-2-yl)-1H-imidazol-4-yl)methyl)piperazin-1-yl)pyridin-2-yl)cyclopropanesulfonamide], which Ki is on record?
**A.** The Ki was < 500 nM.
